Source: patent publication US5837817A, “Tumor necrosis factor receptor-II-associated protein kinase and methods for its use” (Research Development Foundation, priority 1996, dated 1998)

Assays:
p80TRAK = test: In vitro kinase assay with p80TRAK precipitated from U937 cells with p80Δ5, p80Δ5 as substrate; format: biochemical
Method: (§1) An in vitro kinase assay with 10 units of purified casein kinase 1 (FIG. 11A) or p80TRAK precipitated from U937 cells with p80Δ5 (FIG. 8B) with p80Δ5 as a substrate was performed in the presence of the indicated concentration of casein kinase 1-7 dissolved in DMSO. The asterisk represents a control in which DMSO was added to a final concentration of 1.6%. Reaction mixtures were analyzed by 9% sodium dodecyl sulfate-polyacrylamide gel electrophoresis, and the dried gel was exposed to a PhosphorImager screen. The phosphorylation of p80Δ5 was quantitated by ImageQuant Software (Molecular Dynamics, Sunnyvale, Calif.) .
(§2) Standard kinase assays were carried out for 10 minutes at 37° C. in 50 μl containing 20 mM HEPES, pH 7.4, 10 mM MgCl2, 0.2 mM ATP, 0.2 mM NaF, 0.1 mM sodium orthovanadate, and 10 μCi [γ-^32 P]ATP or as described. Reactions were stopped with 15 μl SDS-sample buffer, boiled for 5 minutes and then subjected to SDS-PAGE. Protein bands were visualized by staining with Coomassie Blue and the dried gels were analyzed by a Phosphorimager (Molecular Dynamics, Sunnyvale, Calif.). Labeled protein bands were quantitated by using ImageQuant Software (Molecular Dynamics, Sunnyvale, Calif.). […]

purified casein kinase 1 = biological target: T1, purified casein kinase 1 (Rattus norvegicus, UniProt Q06486); test: In vitro kinase assay with purified casein kinase 1, p80Δ5 as substrate; format: biochemical; conditions: 100 μM inhibitor; 10 units purified casein kinase 1; read-out: inhibition of purified casein kinase 1, measured by phosphorylation of p80Δ5
T1 construct: purchased New England Biolabs, Beverly, Mass
T1 sequence (Q06486 1-317 limits assumed): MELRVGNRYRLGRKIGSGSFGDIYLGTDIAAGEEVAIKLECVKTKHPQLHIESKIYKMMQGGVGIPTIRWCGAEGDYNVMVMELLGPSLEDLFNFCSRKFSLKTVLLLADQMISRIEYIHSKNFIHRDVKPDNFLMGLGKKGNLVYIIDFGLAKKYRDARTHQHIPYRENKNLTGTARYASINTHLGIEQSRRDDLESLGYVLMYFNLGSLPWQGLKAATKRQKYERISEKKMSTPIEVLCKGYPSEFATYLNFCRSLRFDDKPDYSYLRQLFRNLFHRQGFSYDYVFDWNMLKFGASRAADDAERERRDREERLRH
Method: as §1, §2

[1] = tested on: p80 receptor phosphorylation, SW480T cells; conditions: pretreatment of SW480T cells; cited from earlier work

NCCNS(=O)(=O)c1ccc(Cl)c2ccncc12 [casein kinase 1-7]
effect on p80TRAK activity as measured by phosphorylation of p80Δ5 (in words) (p80TRAK): inhibited | inhibition of p80TRAK, measured by phosphorylation of p80Δ5 (p80TRAK; 100 μM inhibitor, p80TRAK precipitated from U937 cells): 50% | inhibition at 100 µM (purified casein kinase 1): 80%

CN[C@@H]1C[C@H]2O[C@@](C)([C@@H]1OC)n1c3ccccc3c3c4c(c5c6ccccc6n2c5c31)C(=O)NC4 [staurosporine]
extent of phosphorylation of the p80 receptor [1]: reduced
